Laboratory results: patent US20260240847A1, “COMPOUNDS WITH ANTI-TUMOR ACTIVITY AGAINST CANCER CELLS BEARING TYROSINE KINASE INHIBITOR RESISTANT EGFR MUTATIONS” (BOARD OF REGENTS, THE UNIVERSITY OF TEXAS SYSTEM, priority 2019, published 2026)

Tests used:
Experiment in all cases: Ba/F3 cell viability, Cell Titer Glo
EGFR Ex19del/L792H = EGFR Ex19del/L792H (Homo sapiens, UniProt P00533, DEL746-750/L792H); details: read-out: IC50 Values; Ba/F3 cells expressing EGFR Ex19del/L792H, 72 hours
Experimental: (§1) The transforming capability of the mutations was then evaluated by sustained cell viability following IL-3 deprivation. Activating EGFR mutant Ba/F3 cells were then screened against EGFR TKIs. Cell viability was determined by the Cell Titer Glo assay.
(§2) Ba/F3 cells expressing acquired atypical mutations spanning exons 18-21 were treated with inhibitors for 72 hours. […] Briefly, stable Ba/F3 cell lines were generated by retroviral transduction of Ba/F3 cell line for 12 hours. […] Three days after transduction, 2 μg/ml puromycin (Invitrogen) was added to the RPMI media. Cell lines were then grown in the absence of IL-3 for two weeks and cell viability was assessed every three days using the Cell Titer Glo assay (Progema).
(§3) Briefly, 2000-3000 cells per well were plated in 384-well plates (Greiner Bio-One) in technical triplicate. Cells were treated with seven different concentrations of tyrosine kinase inhibitors or vehicle alone at a final volume of 40 μL per well. After 3 days, 11 μL of Cell Titer Glo was added to each well. Plates were shaken for 15 minutes, and bioluminescence was determined using a FLUOstar OPTIMA multi-mode micro-plate reader (BMG LABTECH). Bioluminescence values were normalized to DMSO treated cells, and normalized values were plotted in GraphPad Prism using non-linear regression fit to normalized data with a variable slope.

EGFR L858R L718Q = EGFR L858R L718Q (Homo sapiens, UniProt P00533, L718Q/L858R); details: read-out: IC50 Values; Ba/F3 cells expressing EGFR L858R L718Q, 72 hours
Experimental: as §1, §2, §3

EGFR R776H = EGFR R776H (Homo sapiens, UniProt P00533, R776H); details: read-out: IC50 Values; Ba/F3 cells expressing EGFR R776H, 72 hours
Experimental: (§4) Cell viability was determined by the Cell Titer Glo assay.
(§5) Briefly, stable Ba/F3 cell lines were generated by retroviral transduction of Ba/F3 cell line for 12 hours. […] Three days after transduction, 2 μg/ml puromycin (Invitrogen) was added to the RPMI media. Cell lines were then grown in the absence of IL-3 for two weeks and cell viability was assessed every three days using the Cell Titer Glo assay (Progema).
as §3

EGFR L858R/T790M = EGFR L858R/T790M (Homo sapiens, UniProt P00533, L858R/T790M); details: read-out: IC50 Values; Ba/F3 cells expressing EGFR L858R/T790M, 72 hours
Experimental: as §4, §5, §3

EGFR E709K G719S = EGFR E709K G719S (Homo sapiens, UniProt P00533, E709K/G719S); details: read-out: IC50 Values; Ba/F3 cells expressing EGFR E709K G719S, 72 hours
Experimental: as §4, §5, §3

EGFR E709A = EGFR E709A (Homo sapiens, UniProt P00533, E709A); details: read-out: IC50 Values; Ba/F3 cells expressing EGFR E709A, 72 hours
Experimental: as §4, §5, §3

EGFR L858R G796S = EGFR L858R G796S (Homo sapiens, UniProt P00533, G796S/L858R); details: read-out: IC50 Values; Ba/F3 cells expressing EGFR L858R G796S, 72 hours
Experimental: as §1, §2, §3

EGFR Ex19del G724S = EGFR Ex19del G724S (Homo sapiens, UniProt P00533, DEL746-750/G724S); details: read-out: IC50 Values; Ba/F3 cells expressing EGFR Ex19del G724S, 72 hours
Experimental: as §1, §2, §3

EGFR L858R/V834L = EGFR L858R/V834L (Homo sapiens, UniProt P00533, L858R/V834L); details: read-out: IC50 Values; Ba/F3 cells expressing EGFR L858R/V834L, 72 hours
Experimental: as §1, §2, §3

EGFR G724S T790M = EGFR G724S T790M (Homo sapiens, UniProt P00533, G724S/T790M); details: read-out: IC50 Values; Ba/F3 cells expressing EGFR G724S T790M, 72 hours
Experimental: as §4, §5, §3

EGFR T725M = EGFR T725M (Homo sapiens, UniProt P00533, T725M); details: read-out: IC50 Values; Ba/F3 cells expressing EGFR T725M, 72 hours
Experimental: as §4, §5, §3

EGFR Ex19delT854l = EGFR Ex19delT854l (Homo sapiens, UniProt P00533, DEL746-750/T854I); details: read-out: IC50 Values; Ba/F3 cells expressing EGFR Ex19delT854l, 72 hours
Experimental: as §1, §2, §3

EGFR L747P = EGFR L747P (Homo sapiens, UniProt P00533, L747P); details: read-out: IC50 Values; Ba/F3 cells expressing EGFR L747P, 72 hours
Experimental: as §4, §5, §3

EGFR S768I/T790M = EGFR S768I/T790M (Homo sapiens, UniProt P00533, S768I/T790M); details: read-out: IC50 Values; Ba/F3 cells expressing EGFR S768I/T790M, 72 hours
Experimental: as §4, §3

EGFR A767insASV = EGFR A767insASV (Homo sapiens, UniProt P00533, DUP767-769); details: read-out: IC50 Values; Ba/F3 cells expressing EGFR A767insASV, 72 hours
Experimental: as §4, §5, §3

EGFR L858R/T790M/L718Q = EGFR L858R/T790M/L718Q (Homo sapiens, UniProt P00533, L718Q/L858R/T790M); details: read-out: IC50 Values; Ba/F3 cells expressing EGFR L858R/T790M/L718Q, 72 hours
Experimental: as §4, §5, §3

EGFR L858R T790M L718V = EGFR L858R T790M L718V (Homo sapiens, UniProt P00533, L718V/L858R/T790M); details: read-out: IC50 Values; Ba/F3 cells expressing EGFR L858R T790M L718V, 72 hours
Experimental: as §4, §5, §3

EGFR S784F = EGFR S784F (Homo sapiens, UniProt P00533, S784F); details: read-out: IC50 Values; Ba/F3 cells expressing EGFR S784F, 72 hours
Experimental: as §4, §5, §3

EGFR L718Q T790M = EGFR L718Q T790M (Homo sapiens, UniProt P00533, L718Q/T790M); details: read-out: IC50 Values; Ba/F3 cells expressing EGFR L718Q T790M, 72 hours
Experimental: as §4, §5, §3

EGFR G719A = EGFR G719A (Homo sapiens, UniProt P00533, G719A); details: read-out: IC50 Values; Ba/F3 cells expressing EGFR G719A, 72 hours
Experimental: as §4, §3

## C=CC(=O)N1CC[C@@H](Oc2nc(Nc3ccc(N4CCC(N5CCN(C)CC5)CC4)cc3)c(C(N)=O)nc2CC)C1 [Naquotinib]
EGFR Ex19del/L792H
  IC50: 0.00394 µM
EGFR L858R L718Q
  IC50: 0.747 µM
EGFR R776H
  IC50: 0.0686 µM
EGFR L858R/T790M
  IC50: 0.00188 µM
EGFR E709K G719S
  IC50: 0.0152 µM
EGFR E709A
  IC50: 0.255 µM
EGFR L858R G796S
  IC50: 0.423 µM
EGFR Ex19del G724S
  IC50: 0.697 µM
EGFR L858R/V834L
  IC50: 0.00719 µM
EGFR G724S T790M
  IC50: 0.0188 µM
EGFR T725M
  IC50: 0.0776 µM
EGFR Ex19delT854l
  IC50: 0.112 µM
EGFR L747P
  IC50: 0.472 µM
EGFR S768I/T790M
  IC50: 0.0192 µM
EGFR A767insASV
  IC50: 0.217 µM
EGFR L858R/T790M/L718Q
  IC50: 0.0918 µM
EGFR L858R T790M L718V
  IC50: 0.00403 µM
EGFR S784F
  IC50: 0.0702 µM
EGFR L718Q T790M
  IC50: 0.212 µM
EGFR G719A
  IC50: 0.0181 µM
